molecular target: T1, 3-hydroxy-3-methylglutaryl-coenzyme A reductase (Rattus norvegicus, UniProt P51639); assay: HMG-CoA Reductase Enzyme Assay and Inhibition of Cellular Cholesterol Synthesis Assay; conditions: pH 7.2; 37 °C
T1 sequence (P51639 whole entry): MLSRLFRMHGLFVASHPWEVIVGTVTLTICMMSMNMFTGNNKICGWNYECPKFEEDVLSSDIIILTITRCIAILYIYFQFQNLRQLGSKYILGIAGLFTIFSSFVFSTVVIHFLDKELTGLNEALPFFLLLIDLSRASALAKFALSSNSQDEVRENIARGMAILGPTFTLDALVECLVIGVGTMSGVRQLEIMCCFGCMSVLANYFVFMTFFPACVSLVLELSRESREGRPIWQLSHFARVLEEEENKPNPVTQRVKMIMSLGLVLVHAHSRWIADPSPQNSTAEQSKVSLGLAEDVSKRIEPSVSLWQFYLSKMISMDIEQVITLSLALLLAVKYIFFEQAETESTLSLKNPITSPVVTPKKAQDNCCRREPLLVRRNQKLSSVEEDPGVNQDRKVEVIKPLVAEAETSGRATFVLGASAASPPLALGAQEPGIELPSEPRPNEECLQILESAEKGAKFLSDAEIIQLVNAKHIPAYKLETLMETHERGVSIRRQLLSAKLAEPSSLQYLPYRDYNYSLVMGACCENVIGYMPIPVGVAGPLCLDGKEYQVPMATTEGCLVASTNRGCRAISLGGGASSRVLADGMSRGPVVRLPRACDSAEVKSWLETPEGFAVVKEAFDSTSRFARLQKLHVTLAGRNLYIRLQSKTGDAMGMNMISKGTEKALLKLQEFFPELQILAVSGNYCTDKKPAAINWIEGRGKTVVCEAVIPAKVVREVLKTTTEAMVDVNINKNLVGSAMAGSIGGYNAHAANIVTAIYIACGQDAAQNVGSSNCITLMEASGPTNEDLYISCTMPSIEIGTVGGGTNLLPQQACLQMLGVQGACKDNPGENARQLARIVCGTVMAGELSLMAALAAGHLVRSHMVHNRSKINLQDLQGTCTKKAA
Description: Enzyme Assay for HMG-CoA reductase was based on the conversion of isotopically labeled HMG-CoA to mevalonic acid using rat liver microsomes as enzyme source. The product, [14C]-mevalonic acid was lactonized and separated from excess substrate via an anion ion exchange resin column, and radioactivity was counted on a scintillation counter. The IC50 values were calculated with GraphPad software (Prism). The cellular assay EC50/IC50 values were obtained from inhibition of cholesterol synthesis in rat hepatocyte.

Row | Structure (SMILES) | IC50
1 | CC(C)c1nc(N(C)S(C)(=O)=O)nc(-c2ccc(F)cc2)c1/C=C/[C@@H](O)C[C@@H](O)CC(=O)O | 0.3 nM
2 | CC(C)c1c(C(=O)NCc2ccccc2)nn(-c2ccc(F)cc2)c1CC[C@@H](O)C[C@@H](O)CC(=O)O [(3R,5R)-7-[3-(benzylcarbamoyl)-1-(4-fluorophenyl)-4-(propan-2-yl)-1H-pyrazol-5-yl]-3,5-dihydroxyheptanoic acid] | 0.3 nM
3 | CC[C@H](C)C(=O)O[C@H]1C[C@H](O)C=C2C=C[C@H](C)[C@H](CC[C@@H](O)C[C@@H](O)CC(=O)O)[C@H]21 [(3R,5R)-7-[(1S,2S,6S,8S,8aR)-6-hydroxy-2-methyl-8-{[(2S)-2-methylbutanoyl]oxy}-1,2,6,7,8,8a-hexahydronaphthalen-1-yl]-3,5-dihydroxyheptanoic acid] | 17 nM
4 | COCc1c(C(C)C)nc(C(C)C)c(/C=C/[C@@H](O)C[C@@H](O)CC(=O)O)c1-c1ccc(F)cc1 [(3R,5S,6E)-7-[4-(4-fluorophenyl)-5-(methoxymethyl)-2,6-bis(propan-2-yl)pyridin-3-yl]-3,5-dihydroxyhept-6-enoic acid] | 1.7 nM
5 | Cc1ccc(CNC(=O)c2nn(-c3ccc(F)cc3)c(CC[C@@H](O)C[C@@H](O)CC(=O)O)c2C(C)C)cc1 [pyrazole-based inhibitor, 35] | 0.9 nM
6 | CC(C)c1c(C(=O)N(C)Cc2cccc(F)c2F)nn(-c2ccc(F)cc2)c1CC[C@@H](O)C[C@@H](O)CC(=O)O [sodium (3R,5R)-7-(3-{[(2,3-difluorophenyl)methyl](methyl)carbamoyl}-1-(4-fluorophenyl)-4-(propan-2-yl)-1H-pyrazol-5-yl)-3,5-dihydroxyheptanoate] | 0.6 nM
7 | CC(C)c1c(C(=O)N(C)Cc2ccc(F)cc2F)nn(-c2ccc(F)cc2)c1CC[C@@H](O)C[C@@H](O)CC(=O)O [sodium (3R,5R)-7-(3-{[(2,4-difluorophenyl)methyl](methyl)carbamoyl}-1-(4-fluorophenyl)-4-(propan-2-yl)-1H-pyrazol-5-yl)-3,5-dihydroxyheptanoate] | 2.1 nM
8 | CC(C)c1c(C(=O)NCc2cccc(C#N)c2)nn(-c2ccc(F)cc2)c1CC[C@@H](O)C[C@@H](O)CC(=O)O [sodium (3R,5R)-7-(3-{[(3-cyanophenyl)methyl]carbamoyl}-1-(4-fluorophenyl)-4-(propan-2-yl)-1H-pyrazol-5-yl)-3,5-dihydroxyheptanoate] | 1.4 nM
9 | COCc1cccc(CNC(=O)c2nn(-c3ccc(F)cc3)c(CC[C@@H](O)C[C@@H](O)CC(=O)O)c2C(C)C)c1 [sodium (3R,5R)-7-[1-(4-fluorophenyl)-3-({[3-(methoxymethyl)phenyl]methyl}carbamoyl)-4-(propan-2-yl)-1H-pyrazol-5-yl]-3,5-dihydroxyheptanoate] | 0.7 nM
10 | CC(C)c1c(C(=O)N2CCCCC2c2ccccc2)nn(-c2ccc(F)cc2)c1CC[C@@H](O)C[C@@H](O)CC(=O)O (stereo partly drawn) [sodium (3R,5R)-7-[1-(4-fluorophenyl)-3-[(2-phenylpiperidin-1-yl)carbonyl]-4-(propan-2-yl)-1H-pyrazol-5-yl]-3,5-dihydroxyheptanoate] | 1.1 nM
11 | CC(C)c1c(C(=O)N2CCCC2c2ccccc2)nn(-c2ccc(F)cc2)c1CC[C@@H](O)C[C@@H](O)CC(=O)O (stereo partly drawn) [sodium (3R,5R)-7-[1-(4-fluorophenyl)-3-[(2-phenylpyrrolidin-1-yl)carbonyl]-4-(propan-2-yl)-1H-pyrazol-5-yl]-3,5-dihydroxyheptanoate] | 4 nM
12 | CC(C)c1c(C(=O)N2CCCC(c3ccccc3)C2)nn(-c2ccc(F)cc2)c1CC[C@@H](O)C[C@@H](O)CC(=O)O (stereo partly drawn) [sodium (3R,5R)-7-[1-(4-fluorophenyl)-3-[(3-phenylpiperidin-1-yl)carbonyl]-4-(propan-2-yl)-1H-pyrazol-5-yl]-3,5-dihydroxyheptanoate] | 0.4 nM
13 | CC(C)c1c(C(=O)N(C)Cc2ccccc2F)nn(-c2ccc(F)cc2)c1CC[C@@H](O)C[C@@H](O)CC(=O)O [sodium (3R,5R)-7-[1-(4-fluorophenyl)-3-{[(2-fluorophenyl)methyl](methyl)carbamoyl}-4-(propan-2-yl)-1H-pyrazol-5-yl]-3,5-dihydroxyheptanoate] | 0.5 nM
14 | CC(C)c1c(C(=O)N(C)Cc2cccc(F)c2)nn(-c2ccc(F)cc2)c1CC[C@@H](O)C[C@@H](O)CC(=O)O [sodium (3R,5R)-7-[1-(4-fluorophenyl)-3-{[(3-fluorophenyl)methyl](methyl)carbamoyl}-4-(propan-2-yl)-1H-pyrazol-5-yl]-3,5-dihydroxyheptanoate] | 0.2 nM
15 | CC(C)c1c(C(=O)N2CCC[C@H](c3ccccc3)C2)nn(-c2ccc(F)cc2)c1CC[C@@H](O)C[C@@H](O)CC(=O)O [sodium (3R,5R)-7-[1-(4-fluorophenyl)-3-{[(3R)-3-phenylpiperidin-1-yl]carbonyl}-4-(propan-2-yl)-1H-pyrazol-5-yl]-3,5-dihydroxyheptanoate] | 0.3 nM
16 | CC(C)c1c(C(=O)N(C)Cc2ccc(F)cc2)nn(-c2ccc(F)cc2)c1CC[C@@H](O)C[C@@H](O)CC(=O)O [sodium (3R,5R)-7-[1-(4-fluorophenyl)-3-{[(4-fluorophenyl)methyl](methyl)carbamoyl}-4-(propan-2-yl)-1H-pyrazol-5-yl]-3,5-dihydroxyheptanoate] | 0.5 nM
17 | CC(C)c1c(C(=O)NCc2ccc(F)cc2)nn(-c2ccc(F)cc2)c1CC[C@@H](O)C[C@@H](O)CC(=O)O [sodium (3R,5R)-7-[1-(4-fluorophenyl)-3-{[(4-fluorophenyl)methyl]carbamoyl}-4-(propan-2-yl)-1H-pyrazol-5-yl]-3,5-dihydroxyheptanoate] | 0.7 nM
18 | COc1ccc(CN(C)C(=O)c2nn(-c3ccc(F)cc3)c(CC[C@@H](O)C[C@@H](O)CC(=O)O)c2C(C)C)cc1 [sodium (3R,5R)-7-[1-(4-fluorophenyl)-3-{[(4-methoxyphenyl)methyl](methyl)carbamoyl}-4-(propan-2-yl)-1H-pyrazol-5-yl]-3,5-dihydroxyheptanoate] | 0.3 nM
19 | COc1ccc(CNC(=O)c2nn(-c3ccc(F)cc3)c(CC[C@@H](O)C[C@@H](O)CC(=O)O)c2C(C)C)cc1 [sodium (3R,5R)-7-[1-(4-fluorophenyl)-3-{[(4-methoxyphenyl)methyl]carbamoyl}-4-(propan-2-yl)-1H-pyrazol-5-yl]-3,5-dihydroxyheptanoate] | 0.4 nM
20 | Cc1ccccc1CN(C)C(=O)c1nn(-c2ccc(F)cc2)c(CC[C@@H](O)C[C@@H](O)CC(=O)O)c1C(C)C [sodium (3R,5R)-7-[1-(4-fluorophenyl)-3-{methyl[(2-methylphenyl)methyl]carbamoyl}-4-(propan-2-yl)-1H-pyrazol-5-yl]-3,5-dihydroxyheptanoate] | 2.1 nM
21 | Cc1cccc(CN(C)C(=O)c2nn(-c3ccc(F)cc3)c(CC[C@@H](O)C[C@@H](O)CC(=O)O)c2C(C)C)c1 [sodium (3R,5R)-7-[1-(4-fluorophenyl)-3-{methyl[(3-methylphenyl)methyl]carbamoyl}-4-(propan-2-yl)-1H-pyrazol-5-yl]-3,5-dihydroxyheptanoate] | 0.6 nM
22 | Cc1ccc(CN(C)C(=O)c2nn(-c3ccc(F)cc3)c(CC[C@@H](O)C[C@@H](O)CC(=O)O)c2C(C)C)cc1 [sodium (3R,5R)-7-[1-(4-fluorophenyl)-3-{methyl[(4-methylphenyl)methyl]carbamoyl}-4-(propan-2-yl)-1H-pyrazol-5-yl]-3,5-dihydroxyheptanoate] | 1.8 nM
23 | CC(C)c1c(C(=O)NCc2ccc(C(=O)N(C)C)cc2)nn(-c2ccc(F)cc2)c1CC[C@@H](O)C[C@@H](O)CC(=O)O [sodium (3R,5R)-7-[3-({[4-(dimethylcarbamoyl)phenyl]methyl}carbamoyl)-1-(4-fluorophenyl)-4-(propan-2-yl)-1H-pyrazol-5-yl]-3,5-dihydroxyheptanoate] | 23 nM
24 | CCN(Cc1ccccc1)C(=O)c1nn(-c2ccc(F)cc2)c(CC[C@@H](O)C[C@@H](O)CC(=O)O)c1C(C)C [sodium (3R,5R)-7-{3-[benzyl(ethyl)carbamoyl]-1-(4-fluorophenyl)-4-(propan-2-yl)-1H-pyrazol-5-yl}-3,5-dihydroxyheptanoate] | 5.5 nM
25 | CC(C)c1c(C(=O)N(C)Cc2ccccc2)nn(-c2ccc(F)cc2)c1CC[C@@H](O)C[C@@H](O)CC(=O)O [sodium (3R,5R)-7-{3-[benzyl(methyl)carbamoyl]-1-(4-fluorophenyl)-4-(propan-2-yl)-1H-pyrazol-5-yl}-3,5-dihydroxyheptanoate] | 0.2 nM
26 | CC(C)c1c(C(=O)N(Cc2ccccc2)C(C)C)nn(-c2ccc(F)cc2)c1CC[C@@H](O)C[C@@H](O)CC(=O)O [sodium (3R,5R)-7-{3-[benzyl(propan-2-yl)carbamoyl]-1-(4-fluorophenyl)-4-(propan-2-yl)-1H-pyrazol-5-yl}-3,5-dihydroxyheptanoate] | 10 nM

same assay, conditions: pH 7.2; 37 °C; read-out: IC50

Row | Structure (SMILES) | IC50
27 | Cc1ccccc1CN(C)C(=O)c1nn(-c2ccc(F)cc2)c(CC[C@@H](O)C[C@@H](O)CC(=O)O)c1C(C)C [sodium (3R,5R)-7-[1-(4-fluorophenyl)-3-{methyl[(2-methylphenyl)methyl]carbamoyl}-4-(propan-2-yl)-1H-pyrazol-5-yl]-3,5-dihydroxyheptanoate] | 16 nM

— BindingDB's records for doi:10.1021/jm070849r (Pfizer, 2008)
